Holding throughout (test): growth of human tumour cells (NCI), 48 h
Assay [1] deals with ACHN renal.
For assay [2], the system named is LOX IMVI melanoma.
Assay [3] deals with MDA-MB-231 breast.
The subject of assay [4] is NCI-H226 lung.
In assay [5] the test system is NCI-H460 lung.
The test system of assay [6] is RXF 393 renal.
The subject of assay [7] is U251 CNS.
For assay [8], the system named is UO-31 renal.

Each structure is given as a SMILES string.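 Where inhibition never reached the appropriate level, the endpoint shown equals the highest concentration tested. Otherwise, values were interpolated linearly from a five-concentration, 48-hour dose response in 96-well plates. GI50 = concentration required for 50% inhibition of growth. At the TGI there is no net growth.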

`CCN(CC)c1ccc2nc3c4ccccc4c(=O)cc-3n(-c3ccccc3)c2c1`: the GI50 is 2.13 µM in assay [1]; 1.62 µM in assay [2]; 2.22 µM in assay [3]; 2.04 µM in assay [4]; 2.26 µM in assay [5]; 1.94 µM in assay [6]. The GI50 in assay [7] was 1.49 µM; in assay [8], 0.786 µM. The TGI is 14.9 µM in assay [1]; 3.72 µM in assay [2]; 8.2 µM in assay [3]; 5.81 µM in assay [4]; 6.46 µM in assay [5]; 5.83 µM in assay [6]. The results for the TGI in assay [7] and in assay [8] were 6.61 µM and 3.48 µM, respectively.
Consider `CCOC(=O)/C(C#N)=C1\SS/C(=C(/C#N)C(=O)OCC)S1`, for which the GI50 is 14.8 µM in assay [1]; 13.9 µM in assay [2]; 14.9 µM in assay [3]; 19.6 µM in assay [4]; 32 µM in assay [5]; 13.3 µM in assay [6]. Also, the results for the GI50 in assay [7] and in assay [8] were 19 µM and 13.2 µM, respectively. The TGI was 29.5 µM in assay [1]; 57.4 µM in assay [2]; 29.6 µM in assay [3]; 38.6 µM in assay [4]; more than 100 µM in assay [5]; 26.4 µM in assay [6]. In addition, the figures for the TGI in assay [7] and in assay [8] were 38 µM and 26.1 µM, respectively.
As to `Cc1ccc(Cl)cc1NC(=O)c1cc2ccccc2cc1O`, the GI50 was 0.351 µM in assay [1]; 0.213 µM in assay [2]; 0.377 µM in assay [3]; 0.417 µM in assay [4]; 0.376 µM in assay [5]; 0.55 µM in assay [6]. Further, the GI50 is 0.319 µM in assay [7] and 0.201 µM in assay [8]. Also, the TGI is 2.8 µM in assay [1]; 1.49 µM in assay [2]; 2.06 µM in assay [3]; 3.1 µM in assay [4]; 2.28 µM in assay [5]; 2.23 µM in assay [6]. Also, the values for the TGI in assay [7] and in assay [8] were 4.12 µM and 1.47 µM, respectively.
As to `COc1cc(/C=C/C(=O)/C=C/c2cc3ccc(Cl)cc3n(Cc3ccccc3)c2=O)ccc1O`, the GI50 in assay [1] is 1.33 µM; in assay [2], 1.29 µM; in assay [3], 2.93 µM; in assay [4], 2.02 µM; in assay [5], 1.89 µM; in assay [6], 1.8 µM. For the same compound, the GI50 in assay [7] was 1.17 µM; in assay [8], 1.34 µM. In addition, the TGI in assay [1] came out at 2.62 µM; in assay [2], 2.61 µM; in assay [3] it was 16.6 µM; in assay [4] it was 4.66 µM; in assay [5], 4.27 µM; in assay [6], 3.34 µM. Also, the figures for the TGI in assay [7] and in assay [8] were 2.55 µM and 2.64 µM, respectively.
For `COc1ccccc1/C=C/C1=C(C)CCC(c2ccccc2OC)C1C` (stereo not given), the GI50 in assay [1] is 0.272 µM; in assay [2] it was 0.184 µM; in assay [3], 0.157 µM; in assay [4], 0.223 µM; in assay [5] it was 0.278 µM; in assay [6], 0.11 µM. In addition, the results for the GI50 in assay [7] and in assay [8] were 0.132 µM and 0.371 µM, respectively. The TGI was more than 100 µM in assay [1]; more than 56.8 µM in assay [2]; 6.41 µM in assay [3]; 0.627 µM in assay [4]; 1.27 µM in assay [5]; 22.5 µM in assay [7]. This compound also yielded a TGI in assay [8] of more than 100 µM.
Regarding `Cc1nc(-c2cnc(NC(C)C)n(C)c2=O)ccc1Oc1ccnc(-c2cnn(C)c2)c1`, the GI50 in assay [1] was 18.9 µM; in assay [2], 20.7 µM; in assay [3], 20.5 µM; in assay [4] it was 14.9 µM; in assay [5], 13.2 µM; in assay [6], 10.7 µM. Also, the values for the GI50 in assay [7] and in assay [8] were 15.6 µM and 15.7 µM, respectively. Besides, the TGI is more than 100 µM in assay [1]; more than 100 µM in assay [2]; more than 100 µM in assay [3]; 99.1 µM in assay [4]; more than 100 µM in assay [5]; 44 µM in assay [6]. Moreover, the TGI in assay [7] and in assay [8] was more than 100 µM in each case.
Regarding `COc1cccc2nc3ccccc3nc12`, the TGI in assay [1] is 63.4 µM; in assay [2], more than 100 µM; in assay [3] it was more than 100 µM; in assay [4], more than 100 µM; in assay [5], more than 100 µM; in assay [6], more than 100 µM. For the same compound, the TGI is more than 100 µM in assay [7] and 72.3 µM in assay [8].
For `COc1cccc(C2=C(c3cn(C)c4cc(F)ccc34)C(=O)NC2=O)c1`, the GI50 in assay [1] is 10.5 µM; in assay [2] it was 17.1 µM; in assay [3] it was more than 25 µM; in assay [4], more than 18.8 µM; in assay [5], more than 18.6 µM; in assay [6] it was 8.79 µM. Also, the GI50 in assay [7] was more than 17.2 µM; in assay [8], 9.19 µM. Moreover, the TGI in assay [1], in assay [2], in assay [3], in assay [4], in assay [5] and in assay [6] was more than 25 µM each time. The TGI in assay [7] and in assay [8] was more than 25 µM each time.
Consider `CCCCCCCCCCCCCCCCCCOc1ccccc1CC(=O)OCC[N+](CC)(CC)CC`, for which the GI50 is 4.39 µM in assay [1]; 0.881 µM in assay [2]; 1.05 µM in assay [3]; 1.27 µM in assay [4]; 1.73 µM in assay [5]; 0.924 µM in assay [6]. Further, the results for the GI50 in assay [7] and in assay [8] were 1.24 µM and 5.52 µM, respectively. In addition, the TGI in assay [1] worked out at 11.3 µM; in assay [2] it was 1.66 µM; in assay [3] it was 2.7 µM; in assay [4] it was 5.64 µM; in assay [5], 6.34 µM; in assay [6] it was 2.06 µM. In addition, the values for the TGI in assay [7] and in assay [8] were 3.56 µM and 14.5 µM, respectively.

(Values after PubChem BioAssay (NCI).)
